Results from patent US20080268041A1, “COMBINATION OF PROGESTERONE-RECEPTOR ANTAGONIST TOGETHER WITH NONE-STEROIDAL ANTIESTROGEN FOR USE IN BRCA MEDIATED DISEASES” (priority 2007, published 2008).

Legend:
progesterone receptor [1] = molecular target: T1, progesterone receptor (Homo sapiens, UniProt P06401); conditions: Fuhrmann et al., J. Med. Chem. 2000; cited from earlier work
T1 sequence (P06401 1-933): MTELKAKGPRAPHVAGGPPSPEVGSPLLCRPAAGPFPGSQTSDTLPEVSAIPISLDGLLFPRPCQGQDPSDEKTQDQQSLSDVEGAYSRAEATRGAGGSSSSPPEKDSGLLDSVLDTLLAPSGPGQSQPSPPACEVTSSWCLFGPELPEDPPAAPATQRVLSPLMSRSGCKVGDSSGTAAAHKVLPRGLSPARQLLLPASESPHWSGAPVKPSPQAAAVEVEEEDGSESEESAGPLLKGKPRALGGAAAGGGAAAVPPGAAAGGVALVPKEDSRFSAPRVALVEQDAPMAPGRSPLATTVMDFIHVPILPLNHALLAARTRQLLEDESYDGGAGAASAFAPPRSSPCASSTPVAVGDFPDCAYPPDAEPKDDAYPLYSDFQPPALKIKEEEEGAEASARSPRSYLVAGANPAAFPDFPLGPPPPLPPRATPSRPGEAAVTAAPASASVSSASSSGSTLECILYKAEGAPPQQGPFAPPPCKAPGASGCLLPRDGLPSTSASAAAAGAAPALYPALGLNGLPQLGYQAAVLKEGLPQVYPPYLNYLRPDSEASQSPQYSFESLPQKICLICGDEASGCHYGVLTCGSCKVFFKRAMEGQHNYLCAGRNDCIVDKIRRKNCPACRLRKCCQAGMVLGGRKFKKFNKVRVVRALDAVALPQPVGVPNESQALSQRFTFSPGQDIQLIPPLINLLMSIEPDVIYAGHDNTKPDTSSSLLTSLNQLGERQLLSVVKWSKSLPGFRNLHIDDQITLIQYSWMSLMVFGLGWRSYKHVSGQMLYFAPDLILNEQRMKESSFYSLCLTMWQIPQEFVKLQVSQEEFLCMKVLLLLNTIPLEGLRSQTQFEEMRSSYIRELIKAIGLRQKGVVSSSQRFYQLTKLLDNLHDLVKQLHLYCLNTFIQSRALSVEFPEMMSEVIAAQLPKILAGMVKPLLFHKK

[2] = system: NMU-induced rat mammary carcinomas; experiment: NMU-induced mammary tumor model in female rats, 4 weeks treatment; type: in vivo, female Sprague-Dawley rats; conditions: for Median tumor weight: 1 mg/kg p.o. daily for 4 weeks (combination 1 + 1 mg/kg), of 10 animals, control 15200, ovariectomy 0; for Tumor growth inhibition compared to control (procentual change of tumor area): 1 mg/kg p.o. each, 4 weeks, Kruskal-Wallis-test
Method: Tumors were induced by a single intravenous injection of NMU (50 mg/kg) in female Sprague-Dawley rats (Tierzucht Schönwalde, age 50-55 days). Rats with at least one established tumor with a size of minimal 150 mm^2 were treated for 4 weeks by
1) Solvent control, 2) Ovariectomy (at treatment start), 3) The progesterone receptor antagonist 11β-(4-acetylphenyl)-17β-hydroxy-17α(1,1,2,2,2-pentafluoroethyl)-estra-4,9-dien-3-one, 1 mg/kg p.o., 4) Tamoxifen, 1 mg/kg p.o., 5) The progesterone receptor antagonist 11β-(4-acetylphenyl)-17β-hydroxy-17α(1,1,2,2,2-pentafluoroethyl)-estra-4,9-dien-3-one, 1 mg/kg p.o. and Tamoxifen, 1 mg/kg p.o. daily.
As parameter for growth inhibition the procentual change of tumor area determined by weekly caliper measurements was used. For statistical analysis of intergroup differences of mean values the Kruskal-Wallis-test was used.

progesterone receptor [3] = molecular target: T1, progesterone receptor; experiment: Progesterone receptor protein expression/stability after siRNA knock down of BRCA1; type: cell-based
Excerpt: (§1) Cell growth in comparison to untransfected and mock transfected cells was compared. In a second step cells were stimulated either with progesterone and/or with estrogens. […] The effects on progesterone receptor protein expression were further investigated.

[4] = system: MCF-10 mammary cells with BRCA1 and BRCA2 knock down; experiment: Growth of MCF-10 mammary cells with siRNA knock down of BRCA1 and BRCA2, stimulated with progesterone and/or estrogens; type: cell-based; conditions: co-treatment, in the presence of progesterone
Method: MCF-10 mammary cells obtained from ATCC were treated with siRNA knocking down the BRCA1 and BRCA2 gene.
as §1

[5] = system: Brca1/p53-deficient mice mammary tumors; conditions: BRCA1- or BRCA2 inactivated in mammary glands; Poole et al., Science 2006; cited from earlier work

SMILES	Antiprogestagenic activity (progesterone receptor [1])	Median tumor weight [2]	Tumor growth inhibition compared to control (procentual change of tumor area) [2]	Increased stability of progesterone receptor after BRCA1 knock down (progesterone receptor [3])	Growth/proliferation of BRCA1 knock down cells [4]	Development of mammary tumors in mice [5]
CC(=O)c1ccc([C@H]2C[C@@]3(C)[C@@H](CC[C@@]3(O)C(F)(F)C(F)(F)F)[C@@H]3CCC4=CC(=O)CCC4=C32)cc1 [11β-(4-acetylphenyl)-17β-hydroxy-17α-(1,1,2,2,2-pentafluoroethyl)-estra-4,9-dien-3-one]	high antiprogestagenic activity	1800 mg	not significant different to the untreated control group	could be antagonized	able to antagonize the effects of BRCA1 knock down	
CC/C(=C(\c1ccccc1)c1ccc(OCCN(C)C)cc1)c1ccccc1 [Tamoxifen, reference compound]		2950 mg	not significant different to the untreated control group			
CC#C[C@]1(O)CC[C@H]2[C@@H]3CCC4=CC(=O)CCC4=C3[C@@H](c3ccc(N(C)C)cc3)C[C@@]21C [mifepristone]						blocks the development of mammary tumors
